Measured values reported in US20030139372A1, “Modulation of bone formation” (priority 2000, published 2003).
“Also recorded” adds a separate entry of the source.

Key:
bone forming cells = assay: Bone anabolic activity from CFU-f and NASP cell assays combined with neonatal rat calvarial organ cultures; assay type: cell-based; conditions: for bone anabolic activity: useful activity taken as equivalent to that of PGE2
From the text: The main reason for the lack of understanding of the cellular basis for the actions of bone anabolic drugs is that there exists, at present, no single in vitro assay which responds to these drugs in an appropriate manner. However, we have now developed a number of assays which, when used in combination with neonatal rat calvarial organ cultures, are able to predict bone anabolic agents.
In the accompanying Figures, which are purely illustrative and not limiting on the present invention, the effect of certain compounds is shown on alkaline phosphatase activity, calcium uptake and collagen synthesis, respectively, with the final bar showing the cumulative and determinative effect of the compound on bone anabolism:
As noted above, there is no single assay that can reliably report on bone anabolic activity. Individual assays can identify certain putative bone anabolic agents but as there are many bone anabolic agents which act by a number of mechanisms, many remain unidentified. By using the CFU-f and the NASP cell assays in combination with neonatal rat calvarial organ cultures, bone anabolic agents can be reliably identified as the false negatives are reduced to a minimum.

[1] = test system: whole bone marrow cells (BMC); assay: Fibroblastic colony forming unit (CFU-f) cultures of whole bone marrow cells; assay type: cell-based, rat; conditions: for colony numbers: CFU-f colonies
Procedure: Whole bone marrow cells (BMC's) were obtained from the tibias and femurs of 125 g male Wistar rats. The bones were removed under aseptic conditions and all soft adherent tissue removed. An end of each bone was removed, a hole made in the opposing end with an 18 gauge syringe needle, and the cells isolated centrifugally [Dobson K. R., et al., Calcif tissue Int., 65:411-413 (1999)]. The cells were dispersed in 10 ml DMEM (containing 12% FCS, 1×10^−8 M dexamethasone and […] ascorbic acid) by repeated pipetting, and a single-cell suspension achieved by forcefully expelling the cells through a 20 gauge syringe needle. The cells were then used in the protocols described below. To analyse the numbers of fibroblastic-colony forming units (CFU-f) in either whole BMC or high density non-adherent stromal precursor (NASP) cell cultures, 10^6 nucleated BMC, or the non-adherent cells from the high density NASP cellcultures, were plated out on 55 cm^2 petri dishes in DMEM containing; 12% FCS, 1×10^−8 M dexamethasone and 50 μg/ml ascorbic acid. In the case of the CFU-f analysis of whole BMC, the test agents were added once at the beginning of the culture period. In the case of NASP cell cultures, the test agents were added at the beginning of the NASP cell cultures themselves and the CFU-f assay only used to assess the number of CFU-f generated during the NASP cell culture. The medium was changed after 5 days and, thereafter, twice weekly. The cultures were maintained for 18 days, after which the cells were washed with PBS and fixed, by the addition of cold ethanol. After fixation, the cultures were stained for alkaline phosphatase (APase) positive, calcium positive, collagen positive and total colonies as described by Scutt & Bertram (J. Bone and Mineral Res. 10:474-489, 1995). The cultures were then photographed using a digital camera and the APase positive, calcium positive, collagen positive and total colonies quantitated using Bioimage “Intelligent Quantifier” image analysis software [Dobson K., et al., A cost effective method for the automatic quantitative analysis of fibroblastic-colony forming units with osteoblastic potential. Calcif. Tissue Int. 65:166-172 (1999)].

[2] = test system: non-adherent stromal precursor (NASP) cells; assay: High-density non-adherent stromal precursor (NASP) cell cultures; assay type: cell-based, rat; conditions: 4 day NASP culture then CFU-f readout; FIG. 1
Procedure: Whole bone marrow cells (BMC's) were obtained from the tibias and femurs of 125 g male Wistar rats. The bones were removed under aseptic conditions and all soft adherent tissue removed. An end of each bone was removed, a hole made in the opposing end with an 18 gauge syringe needle, and the cells isolated centrifugally [Dobson K. R., et al., Calcif tissue Int., 65:411-413 (1999)]. The cells were dispersed in 10 ml DMEM (containing 12% FCS, 1×10^−8 M dexamethasone and […] ascorbic acid) by repeated pipetting, and a single-cell suspension achieved by forcefully expelling the cells through a 20 gauge syringe needle. The cells were then used in the protocols described below. […]
After fixation, the cultures were stained for alkaline phosphatase (APase) positive, calcium positive, collagen positive and total colonies as described by Scutt & Bertram (J. Bone and Mineral Res. 10:474-489, 1995). The cultures were then photographed using a digital camera and the APase positive, calcium positive, collagen positive and total colonies quantitated using Bioimage “Intelligent Quantifier” image analysis software [Dobson K., et al., A cost effective method for the automatic quantitative analysis of fibroblastic-colony forming units with osteoblastic potential. […]

neonatal rat calvariae = assay: Collagen synthesis in organ culture of neonatal rat calvariae; assay type: cell-based; conditions: [3H]proline incorporation into collagenase-digestible protein; FIG. 1
Procedure: One day old rat pups were killed and the calvariae (skull cases) dissected out. The calvariae were then cut along the sagittal suture to give two hemicalvariae per foetus. Each bone was cultured in 2 ml DMEM containing 1 mg/ml BSA, 50 μg/ml ascorbic acid, 60 μg/ml penicillin, and 50 μg/ml streptomycin and 1×10^−8M dexamethasone in 35 mm tissue culture wells. After 24 h, the medium was replaced with fresh medium, any test agent added, and the tissue cultured for a further 48 h.
In this assay, each bone was pulsed with 10 μCi of [^3H]proline for 24 h at the end of the culture period. The bones were washed successively in trichloroacetic acid (TCA), acetone, and ether, and then dried. The incorporation of [^3H]proline into collagenase-digestible protein (CDP) was determined using purified bacterial collagenase by the method of Peterkofsky B. and Diegelmann R. (Biochemistry, 6: 988-994, 1971) and expressed as dpm.

CCCCC/C=C\C/C=C\CCCCCCCC(=O)O [Linoleic acid, linoleic acid]
bone anabolic activity (bone forming cells): showed bone anabolic activity

CCCCCCCCCCCCCCCC(=O)OC [Methyl palmitate, methyl palmitate]
colony numbers [1]: produced stimulation

CCCCC[C@H](O)/C=C/[C@H]1C=CC(=O)[C@@H]1CCCCCCC(=O)O [PGA1]
colony numbers [1]: significant dose dependent increase | response in CFU-f assay ([1]; whole BMC, 18 day culture, FIG. 1): positive response | response in NASP cell assay [2]: positive response | response in calvarial collagen synthesis assay (neonatal rat calvariae): positive response | bone anabolic activity compared with PGE2 (bone forming cells; magnitude relative to PGE2): comparable with that produced by PGE2; also recorded: at least as good as that of PGE2

CCCCC[C@H](O)/C=C/[C@H]1C=CC(=O)[C@@H]1C/C=C\CCCC(=O)O [PGA2]
bone anabolic activity (bone forming cells): useful activity

CC#CCC(C)[C@H](O)/C=C/[C@@H]1[C@H]2C/C(=C/CCCC(=O)O)C[C@H]2C[C@H]1O (some centres unmarked) [iloprost]
colony numbers [1]: stimulation comparable with that of PGA1

CCCCCCCC/C=C\CCCCCCCC(=O)O [oleic acid]
bone anabolic activity (bone forming cells): useful activity

c1cc2c(cc1[C@H]1OC[C@H]3[C@@H]1CO[C@@H]3c1ccc3c(c1)OCO3)OCO2 [sesamin]
bone anabolic activity (bone forming cells): useful activity
